This is an account of results in US20240009105A1, “TETRAPEPTIDE AND COMPOSITIONS COMPRISING TETRAPEPTIDES” (THE BOOTS COMPANY PLC, priority 2020, published 2024).

In the test the test system is Fibrillin 1. Briefly: Fibrillin 1 expression in primary human dermal fibroblasts by immunofluorescence. The format is cell-based. The note with it: HDF cells, 10 ppm peptide, cultured 5 days, immunofluorescence fibre density. As for the experimental part:
The synergistic activity of the tetrapeptides of the present invention were assessed to determine the expression of dermal extracellular protein Fibrillin 1 using immunofluorescence.
Primary Human dermal fibroblast (HDFs) cells were purchased from Promo Cell and came from a donor. Cells were grown in wells of 96-well black walled, clear bottomed, plates (as purchased from Pierce, Thermo Fisher). Cells were cultured in Human Dermal Fibroblast media (PromoCell) supplemented with Basic Fibroblast Growth Factor (recombinant human), 1 ng/ml and Insulin 5 μg/mL Cells were cultured for 5 days in the presence of the tetrapeptides combination of the present invention, changing media and peptides every 48 hours, followed by immunofluorescence assessment. At the time of treatment cells were at passage 3-4. After 5 days the media was discarded, and cells fixed with methanol. […]
The antibody binding to Fibrillin 1 fibres was visualised using a Nikon Eclipse 100 microscope fluorescence setting using an excitation lens for fluorescein isothiocyanate (FITC). […] Image-J software was used to quantify the Fibrillin 1 fibre abundance and coverage in each image using a threshold of 235 measuring the fibre density.
Results are expressed as an average percentage increase in fibrillin abundance compared to untreated control.

Marks after values point to notes of the source that are not given here.

For Pal-LSVD-OH, the “Fibrillin 1 (average percentage increase in fibrillin abundance compared to untreated control)” value is given as “+185%^a”.

As to Pal-GPKG-OH, the “Fibrillin 1 (average percentage increase in fibrillin abundance compared to untreated control)” value is on record as “+131%^a”.
